Source: patent US20260297542A1, “HERBICIDE RESISTANT PLANTS” (SYNGENTA CROP PROTECTION AG, priority 2023, published 2026)
Substitutions are numbered along the chain they refer to.

Key:
Test in all cases: E. coli hemG growth inhibition by herbicide, AtPPO1 variant
Format in all cases: cell-based
Conditions in all cases: read-out: percentage growth inhibition
AtPPO1 T431R = biological target: T1, AtPPO1 T431R (Arabidopsis thaliana, UniProt P55826, T431R)
T1 construct: expressed in transfected cells; host or cells: E. coli BL21(DE3) hemG (pET24a, T7 promoter)
T1 sequence (P55826 35-537 T431R): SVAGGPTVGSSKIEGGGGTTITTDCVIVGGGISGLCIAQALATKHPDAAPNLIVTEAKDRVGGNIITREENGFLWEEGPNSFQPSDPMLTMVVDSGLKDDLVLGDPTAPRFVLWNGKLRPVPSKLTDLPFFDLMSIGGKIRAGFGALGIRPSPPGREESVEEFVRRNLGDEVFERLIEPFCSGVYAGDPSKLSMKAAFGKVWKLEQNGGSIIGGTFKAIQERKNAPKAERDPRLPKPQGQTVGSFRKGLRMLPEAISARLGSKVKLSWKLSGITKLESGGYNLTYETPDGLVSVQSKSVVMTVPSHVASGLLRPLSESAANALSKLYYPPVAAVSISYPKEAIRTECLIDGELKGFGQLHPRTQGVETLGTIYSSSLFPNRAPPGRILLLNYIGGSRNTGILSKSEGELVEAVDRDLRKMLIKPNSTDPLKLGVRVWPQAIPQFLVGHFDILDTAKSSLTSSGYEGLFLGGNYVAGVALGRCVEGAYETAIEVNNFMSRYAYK
Procedure, shortened: (§1)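 Variant plasmids were transformed into hemG-null BL21(DE3) and precultured 24 h with hematin. Washed cells were diluted 1:100 into Terrific broth containing 0.1 mM IPTG and herbicide (6.25 ppm 0 or E; 0.78 ppm B) or DMSO. After 24 h at 37° C, OD600 gave percent inhibition.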

AtPPO1 V198W = biological target: T2, AtPPO1 V198W (Arabidopsis thaliana, UniProt P55826, V198W)
T2 construct: expressed in transfected cells; host or cells: E. coli BL21(DE3) hemG (hemG replaced by CmR), pET24a plasmid
T2 sequence (P55826 35-537 V198W): T1 sequence (P55826 35-537 T431R) with V164W, R397T
Procedure, shortened: as §1

AtPPO1 V218K = biological target: T3, AtPPO1 V218K (Arabidopsis thaliana, UniProt P55826, V218K)
T3 construct: expressed in transfected cells; host or cells: E. coli BL21(DE3) hemG (hemG replaced by CmR), pET24a plasmid
T3 sequence (P55826 35-537 V218K): T1 sequence (P55826 35-537 T431R) with V184K, R397T
Procedure, shortened: as §1

AtPPO1 V365M = biological target: T4, AtPPO1 V365M (Arabidopsis thaliana, UniProt P55826, V365M)
T4 construct: expressed in transfected cells; host or cells: E. coli BL21(DE3) hemG (pET24a, T7 promoter)
T4 sequence (P55826 35-537 V365M): T1 sequence (P55826 35-537 T431R) with V331M, R397T
Procedure, shortened: as §1

| Compound | inhibition at 6.25 ppm (AtPPO1 T431R) [%] | inhibition at 6.25 ppm (AtPPO1 V198W) [%] | inhibition at 6.25 ppm (AtPPO1 V218K) [%] | inhibition at 6.25 ppm (AtPPO1 V365M) [%] | inhibition at 0.78 ppm (AtPPO1 T431R) [%] | inhibition at 0.78 ppm (AtPPO1 V198W) [%] | inhibition at 0.78 ppm (AtPPO1 V218K) [%] | inhibition at 0.78 ppm (AtPPO1 V365M) [%] |
| --- | --- | --- | --- | --- | --- | --- | --- | --- |
| CCOC(=O)[C@]1(C)CC(c2cc(-n3c(=O)n(C)c(=S)n(C)c3=O)c(F)cc2Cl)=NO1 [Herbicide D, ethyl (5S)-3-[2-chloro-5-(3,5-dimethyl-2,6-dioxo-4-thioxo-1,3,5-triazinan-1-yl)-4-fluoro-phenyl]-5-methyl-4H-isoxazole-5-carboxylate] | 28 | 47 | 31 | 42 |  |  |  |  |
| C#CCN1C(=O)C(F)(F)Oc2cc(F)c(-n3c(=O)n(C)c(=S)n(C)c3=O)cc21 [Herbicide B, trifludimoxazin] |  |  |  |  | 25 | 30 | 38 | 3 |
| CC(C)N(C)S(=O)(=O)NC(=O)c1cc(-n2c(=O)cc(C(F)(F)F)n(C)c2=O)c(F)cc1Cl [Herbicide E, saflufenacil] | 56 | 51 | 50 | 22 |  |  |  |  |
